Experimental data published in PubChem BioAssay AID248 (DTP/NCI, 2004).
“And” between values parts separate entries of the source, which are not always exact repeats. Identical values can stand only once. Inconclusive results and toxic doses are left out. No stated cut-off is given here; in the data, active means T/C of 150% or more; inactive means T/C below 125%.

Test system: L1210 leukemia ip in BDF1 mice, survival T/C
Assay: NCI In Vivo Anticancer Drug Screen. Data for tumor model L1210 Leukemia (intraperitoneal) in B6D2F1 (BDF1) mice
Conditions: endpoint: mean survival time, higher = longer survival
In short: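 Antitumor effect is assessed in tumor-bearing animals. Survival in the compound arm is compared with a vehicle-dosed control arm and expressed as their quotient.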

[1] = dose: 100.0 mg/kg/injection, schedule: Q04DX003 (ip), vehicle: saline
[2] = dose: 200.0 mg/kg/injection, schedule: Q04DX003 (ip), vehicle: saline
[3] = dose: 400.0 mg/kg/injection, schedule: Q04DX003 (ip), vehicle: saline
[4] = dose: 100.0 mg/kg/injection, schedule: Q01DX009 (ip), vehicle: saline with Tween-80
[5] = dose: 100.0 mg/kg/injection, schedule: Q04DX003 (ip), vehicle: saline with Tween-80
[6] = dose: 200.0 mg/kg/injection, schedule: Q01DX009 (ip), vehicle: saline with Tween-80
[7] = dose: 200.0 mg/kg/injection, schedule: Q04DX003 (ip), vehicle: saline with Tween-80
[8] = dose: 400.0 mg/kg/injection, schedule: Q01DX009 (ip), vehicle: saline with Tween-80
[9] = dose: 400.0 mg/kg/injection, schedule: Q04DX003 (ip), vehicle: saline with Tween-80
[10] = dose: 400.0 mg/kg/injection, schedule: Q04DX002 (ip), vehicle: saline with Tween-80
[11] = dose: 100.0 mg/kg/injection, schedule: Q01DX009 (ip), vehicle: Klucel (hydroxypropylcellulose) (HPC)
[12] = dose: 100.0 mg/kg/injection, schedule: Q04DX003 (ip), vehicle: Klucel (hydroxypropylcellulose) (HPC)
[13] = dose: 200.0 mg/kg/injection, schedule: Q01DX009 (ip), vehicle: Klucel (hydroxypropylcellulose) (HPC)
[14] = dose: 200.0 mg/kg/injection, schedule: Q04DX003 (ip), vehicle: Klucel (hydroxypropylcellulose) (HPC)
[15] = dose: 400.0 mg/kg/injection, schedule: Q01DX009 (ip), vehicle: Klucel (hydroxypropylcellulose) (HPC)
[16] = dose: 100.0 mg/kg/injection, schedule: Q01DX001 (ip), vehicle: carboxymethylcellulose (CMC)
[17] = dose: 200.0 mg/kg/injection, schedule: Q01DX001 (ip), vehicle: carboxymethylcellulose (CMC)
[18] = dose: 400.0 mg/kg/injection, schedule: Q01DX001 (ip), vehicle: carboxymethylcellulose (CMC)
[19] = dose: 50.0 mg/kg/injection, schedule: Q01DX009 (ip), vehicle: Klucel (hydroxypropylcellulose) (HPC)
[20] = dose: 100.0 mg/kg/injection, schedule: Q04DX002 (ip), vehicle: Klucel (hydroxypropylcellulose) (HPC)
[21] = dose: 200.0 mg/kg/injection, schedule: Q04DX002 (ip), vehicle: Klucel (hydroxypropylcellulose) (HPC)
[22] = dose: 400.0 mg/kg/injection, schedule: Q04DX002 (ip), vehicle: Klucel (hydroxypropylcellulose) (HPC)
[23] = dose: 50.0 mg/kg/injection, schedule: Q01DX009 (ip), vehicle: saline with Tween-80

Measured: T/C

COCCOC(=O)CCCCC(=O)OCCOC
inactive: [1] 107 % of control | [2] 100 % of control | [3] 94 % of control

O=P1(Cc2ccccc2)CC(Br)C(Br)C1 (configuration not stated)
inactive: dose: 100.0 mg/kg/injection, schedule: Q04DX003 (ip), vehicle: other 101 % of control | dose: 200.0 mg/kg/injection, schedule: Q04DX003 (ip), vehicle: other 101 % of control | dose: 400.0 mg/kg/injection, schedule: Q04DX003 (ip), vehicle: other 101 % of control

O=C1NC(=O)N(c2ccccc2)C(=O)/C1=C/c1ccccc1
inactive: dose: 100.0 mg/kg/injection, schedule: Q01DX001 (ip), vehicle: Klucel (hydroxypropylcellulose) (HPC) 90 % of control | dose: 200.0 mg/kg/injection, schedule: Q01DX001 (ip), vehicle: Klucel (hydroxypropylcellulose) (HPC) 97 % of control

CCCCCSC(=O)C(N)=O
inactive: [4] 102 % of control | [5] 100 % of control | [6] 100 % of control | [7] 109 % of control | [8] 96 % of control | [9] 92 % of control

Oc1ccc(O)c(CCCc2cc(O)ccc2O)c1
inactive: [5] 98 % of control | [7] 98 % of control | [9] 90 % of control

CCOC(=O)c1nc(SC)n(Cc2ccccc2)c1C(=O)OCC
inactive: dose: 25.0 mg/kg/injection, schedule: Q04DX002 (ip), vehicle: saline with Tween-80 94 % of control and 103 % of control | dose: 50.0 mg/kg/injection, schedule: Q04DX002 (ip), vehicle: saline with Tween-80 106 % of control and 91 % of control | dose: 100.0 mg/kg/injection, schedule: Q01DX001 (ip), vehicle: saline with Tween-80 95 % of control and 98 % of control | [5] 99 % of control | dose: 200.0 mg/kg/injection, schedule: Q01DX001 (ip), vehicle: saline with Tween-80 102 % of control and 91 % of control | [7] 100 % of control | dose: 400.0 mg/kg/injection, schedule: Q01DX001 (ip), vehicle: saline with Tween-80 95 % of control and 91 % of control | [10] 94 % of control and 101 % of control | [9] 99 % of control

Cc1ccccc1C(Br)C1=CC(C)(C)c2ccccc2C1=O (configuration not stated)
inactive: [11] 101 % of control | [12] 97 % of control | [13] 105 % of control | [14] 92 % of control | [15] 95 % of control | dose: 400.0 mg/kg/injection, schedule: Q04DX003 (ip), vehicle: Klucel (hydroxypropylcellulose) (HPC) 90 % of control

Cc1nc(SCc2ccc(Cl)cc2)[nH]c(=O)c1CCO
inactive: [4] 92 % of control | [6] 92 % of control | [8] 92 % of control

COc1ccccc1/C=C(\S)C(=O)O
inactive: dose: 100.0 mg/kg/injection, schedule: Q01DX001 (ip), vehicle: saline 103 % of control | dose: 200.0 mg/kg/injection, schedule: Q01DX001 (ip), vehicle: saline 97 % of control | dose: 400.0 mg/kg/injection, schedule: Q01DX001 (ip), vehicle: saline 97 % of control

CCCCC(=O)N/N=C\c1ccc(C(=O)O)cc1
inactive: [16] 96 % of control | [17] 100 % of control | [18] 110 % of control

O=[N+]([O-])/C=C/c1ccc([N+](=O)[O-])cc1
inactive: dose: 6.25 mg/kg/injection, schedule: Q01DX005 (ip), vehicle: saline with Tween-80 110 % of control | dose: 12.5 mg/kg/injection, schedule: Q01DX005 (ip), vehicle: saline with Tween-80 104 % of control | dose: 25.0 mg/kg/injection, schedule: Q01DX005 (ip), vehicle: saline with Tween-80 114 % of control | [19] 93 % of control | [11] 97 % of control | [12] 96 % of control | [14] 104 % of control

C/C(CCO)=N/N=C(N)N
inactive: dose: 15.0 mg/kg/injection, schedule: Q01DX Z (ip), vehicle: methylcellulose (MC) 97 % of control | dose: 30.0 mg/kg/injection, schedule: Q01DX Z (ip), vehicle: methylcellulose (MC) 109 % of control | dose: 30.0 mg/kg/injection, schedule: Q01DX Z (oral), vehicle: methylcellulose (MC) 97 % of control | dose: 60.0 mg/kg/injection, schedule: Q01DX Z (oral), vehicle: methylcellulose (MC) 100 % of control

CCCC1c2ccccc2-c2ccc(C(C)=O)cc21 (configuration not stated)
inactive: [16] 97 % of control | [17] 92 % of control | [18] 97 % of control

COc1ccccc1NCc1cccc([N+](=O)[O-])c1
inactive: [11] 100 % of control | [1] 100 % of control | [13] 94 % of control | [2] 94 % of control | [3] 86 % of control

Cc1ccc(C2C(C(=O)O)C2c2ccccc2)cc1 (configuration not stated)
inactive: [20] 106 % of control | [21] 95 % of control | [22] 92 % of control

COC(=O)c1ccccc1NC(=O)Nc1cccc(OC)c1
inactive: [20] 108 % of control | [21] 97 % of control | [22] 105 % of control

O=[N+]([O-])c1cc(F)ccc1O
inactive: [11] 94 % of control | [12] 101 % of control | [5] 97 % of control | [7] 106 % of control

N#CCN(CC#N)CCCN(CC#N)CCCN(CC#N)CC#N
inactive: dose: 12.5 mg/kg/injection, schedule: Q01DX001 (ip), vehicle: saline with Tween-80 97 % of control | dose: 25.0 mg/kg/injection, schedule: Q01DX001 (ip), vehicle: saline with Tween-80 108 % of control | dose: 50.0 mg/kg/injection, schedule: Q01DX001 (ip), vehicle: saline with Tween-80 102 % of control

CC1(c2cccnc2)OCCO1
inactive: dose: 75.0 mg/kg/injection, schedule: Q01DX001 (ip), vehicle: saline 97 % of control | dose: 150.0 mg/kg/injection, schedule: Q01DX001 (ip), vehicle: saline 98 % of control | dose: 300.0 mg/kg/injection, schedule: Q01DX001 (ip), vehicle: saline 95 % of control

COCCOCCOCCOCCOCCOC
inactive: dose: 12.5 mg/kg/injection, schedule: Q01DX009 (ip), vehicle: saline with Tween-80 104 % of control | dose: 25.0 mg/kg/injection, schedule: Q01DX009 (ip), vehicle: saline with Tween-80 94 % of control | [23] 105 % of control

COc1cc2c(cc1O)CN(CCC(C)=O)CC2O (configuration not stated)
inactive: dose: 25.0 mg/kg/injection, schedule: Q01DX009 (ip), vehicle: saline 101 % of control | dose: 50.0 mg/kg/injection, schedule: Q01DX009 (ip), vehicle: saline 93 % of control | dose: 100.0 mg/kg/injection, schedule: Q01DX009 (ip), vehicle: saline 86 % of control

O=C(NCc1cnccn1)c1ccc([N+](=O)[O-])cc1
inactive: [4] 98 % of control | [6] 104 % of control | [8] 98 % of control

Fc1c(F)c(F)c(Oc2nc(Oc3c(F)c(F)c(F)c(F)c3F)nc(-c3ccccc3)n2)c(F)c1F
inactive: dose: 25.6 mg/kg/injection, schedule: Q04DX002 (ip), vehicle: saline with Tween-80 91 % of control | dose: 64.0 mg/kg/injection, schedule: Q04DX002 (ip), vehicle: saline with Tween-80 102 % of control | [5] 92 % of control | dose: 160.0 mg/kg/injection, schedule: Q04DX002 (ip), vehicle: saline with Tween-80 94 % of control | [7] 92 % of control | [10] 105 % of control | [9] 87 % of control

OCCN1CCSC1=S
inactive: [4] 87 % of control | [6] 88 % of control

NC(=O)c1ccccc1C(Cl)(Cl)Cl
inactive: [23] 88 % of control | [4] 89 % of control | [5] 104 % of control | [7] 96 % of control

NCC12CC3CC(CC(C3)C1)C2
inactive: dose: 25.0 mg/kg/injection, schedule: Q01DX009 (ip), vehicle: Klucel (hydroxypropylcellulose) (HPC) 107 % of control | dose: 25.0 mg/kg/injection, schedule: Q04DX002 (ip), vehicle: Klucel (hydroxypropylcellulose) (HPC) 111 % of control | [19] 93 % of control | dose: 50.0 mg/kg/injection, schedule: Q04DX002 (ip), vehicle: Klucel (hydroxypropylcellulose) (HPC) 107 % of control | [11] 90 % of control | [20] 96 % of control and 104 % of control

COc1ccccc1C=O
inactive: [11] 90 % of control | [13] 90 % of control | [15] 106 % of control
